Measured values reported in patent US9309187B2, “EP2 receptor agonists” (TAKEDA GMBH, priority 2012, dated 2016).

Assays:
[1] = tested on: plasma TNFα after i.v. LPS; experiment: In vivo assay: LPS-induced TNFα release in rats; design: species or system Sprague Dawley rats; settings: Rattus norvegicus; p.o. 1 h prior to i.v. LPS 20 μg/kg; plasma TNFα 1 h after LPS
Procedure: In Vivo Assay: LPS-Induced TNFα Release in Rats
Intravenously administration of lipopolysaccharide (LPS) causes a systemic inflammation characterised by release of pro-inflammatory cytokines, e.g. tumor necrosis factor alpha (TNFα). Selective EP2 agonists are administered per oral 1 h prior intravenously LPS challenge in rats. The anti-inflammatory activity of the selective EP2 agonists is assessed based on TNFα levels in blood plasma 1 h after LPS exposure.
Male Sprague Dawley rats weighing 250-300 g were used. Rats were delivered 1 week prior to the experiments and had free access to water and food.
The test compound was mixed with 1.33% polyethylenglycol 400 (PEG400, Merck, Darmstadt, Germany) and subsequently suspended in 2% methocel solution (hypromellose, Sigma, Steinheim, Germany) containing Antifoam C Emulsion (Sigma, Steinheim, Germany, 0.1 mL/15 mL) using a mixing device (ULTRA-TURRAX T8 basic, VDI12, VWR International GmbH). The aimed doses were prepared by dilution series from the stock suspension, which was prepared for the administration of the highest dose in each experiment.
The administered volume of the compound suspension is 10 mL/kg. On day of the experiment the rat body weights were documented to calculate the volume to be administered. LPS challenged control animals received drug-free vehicle solution as placebo. Test compounds and vehicle were administered by oral gavage 1 h prior to LPS challenge.
LPS (from Escherichia coli 055:B5, Sigma, Steinheim, Germany) was solubilised in 0.9% sterile NaCl solution (B. Braun Melsungen AG, Melsungen, Germany) containing 0.1% hydroxylamine (Sigma, Steinheim, Germany). LPS is intravenously (i.v.) injected at a dose of 20 μg/kg (1 mL/kg b.w.) 1 h after compound or vehicle administration.
One hour after LPS-challenge, the animals were sacrificed by inhalative isofluran anaesthesia and subsequently cervical dislocation. Heparinised blood was obtained by heart puncture. Blood was centrifuged (21,000×g, 4° C., 10 min), and plasma samples were kept frozen at −20° C. until determination of TNFα levels by ELISA. TNFα was measured with a commercially available ELISA-Kit (Quantikine®, Rat TNFα/TNFSF1A, R&D Systems, Minneapolis, USA).
The compound effect on TNFα release was calculated individually in percent (%) for each compound treated animal in relation to the mean TNFα level of the vehicle treated LPS-challenged control group: % effect=(Y−K)/K*100 • with defining: • Y=plasma TNFα concentration of the compound treated animal • K=mean plasma TNFα concentration of the vehicle treated group
Statistical analysis was performed on the primary TNFα concentrations by One-Way ANOVA and Dunnett's Multiple Comparison test vs. vehicle treated control group.

[2] = biological target: T1, human prostanoid receptor EP2 (Homo sapiens, UniProt P43116); experiment: EP2 cAMP release assay in CHOp6CreLuc-huEP2 cells (CRE-luciferase readout); assay type: cell-based; settings: CHOp6CreLuc-huEP2 cells, 4 hours at 37° C.; reported as range bins; read-out: EP2 cAMP release assay pEC50 (-log EC50) (converted)
T1 construct: expressed in transfected cells; host or cells: CHO-K1 (CHOp6CreLuc-huEP2)
T1 sequence (P43116 whole entry): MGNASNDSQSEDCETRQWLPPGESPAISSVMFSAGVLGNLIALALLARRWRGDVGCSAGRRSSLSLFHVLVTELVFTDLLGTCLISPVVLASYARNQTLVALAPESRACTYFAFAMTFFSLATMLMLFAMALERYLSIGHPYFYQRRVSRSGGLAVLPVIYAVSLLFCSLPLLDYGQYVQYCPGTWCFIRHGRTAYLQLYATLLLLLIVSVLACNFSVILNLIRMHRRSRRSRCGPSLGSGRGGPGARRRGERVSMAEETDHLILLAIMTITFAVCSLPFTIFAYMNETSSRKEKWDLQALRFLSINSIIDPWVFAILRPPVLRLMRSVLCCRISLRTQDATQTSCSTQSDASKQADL
Procedure: Method for Measuring cAMP Release in Human EP2 Stably Transfectant Cells:
The potency and efficacy of EP2 agonists have been determined via measuring cAMP release in stably transfectant CHO-K1 cell expressing the human prostanoid receptor EP2 and luciferase enzyme regulated via a 6 times CRE (cAMP response element) containing transcriptional promoter. CHOp6CreLuc-huEP2 cells were seeded into 384-well plate (1000 cells per well) in DMEM/F12 (Dulbecco's Modified Eagle Medium/Nutrient Mixture F12) cell culture medium containing 2% FCS (Fetal Calf Serum) and 500 μg/ml G418 24 hours prior to the experiment. Test compound was added as serial dilutions while keeping the final DMSO concentration constant in each well. […] Cells were incubated together with test compound or butaprost for 4 hours at 37° C. The cAMP release was determined indirectly via luciferase activity that directly correlated to the amount of luciferase enzyme expressed in response to cAMP regulated promoter activity. The luciferase activity was determined by addition of luciferin containing buffer and subsequent quantification of resulting luminescence. Each sample was measured in quadruplicates per experiment and half-maximal effective concentration (EC50) and relative maximal effect compared to butaprost was determined from 3 independent experiments with GraphPad Prism Software. A compound that achieved over 80% of the maximal effect of butaprost was considered as full agonist.
For the following compounds the potency was determined in the cAMP release assay applying human EP2 transfectant CHOp6CreLuc-huEP2 cells. […] The numbers of the compounds correspond to the examples numbers.
EP2 cAMP Release Assay: pEC50

Structure (SMILES)	ED50 [1]	EC50 [2]
O=C(O)/C=C/c1cccc(NC(=O)c2cc(-c3ccccc3)cc3ccccc23)c1 [Example 1, (2E)-3-(3-{[(3-phenylnaphthalen-1-yl)carbonyl]amino}phenyl)prop-2-enoic acid]	0.1 to 3 mg/kg	6.31 to 100 pM
O=C(O)/C=C/c1ccc(F)c(NC(=O)c2cc(-c3ccccc3)cc3ccccc23)c1 [Example 2, (2E)-3-(4-fluoro-3-{[(3-phenylnaphthalen-1-yl)carbonyl]amino}phenyl)prop-2-enoic acid]	0.1 to 3 mg/kg	6.31 to 100 pM
O=C(O)/C=C/c1ccc(Cl)c(NC(=O)c2cc(-c3ccccc3)cc3ccccc23)c1 [Example 3, (2E)-3-(4-chloro-3-{[(3-phenylnaphthalen-1-yl)carbonyl]amino}phenyl)prop-2-enoic acid]	0.1 to 3 mg/kg	6.31 to 100 pM
O=C(O)/C=C/c1ccc(F)c(NC(=O)c2cc(-c3ccccc3F)cc3ccccc23)c1 [Example 9, (2E)-3-{3-[({3-[2-fluorophenyl]naphthalen-1-yl}carbonyl)amino]-4fluorophenyl}prop-2-enoic acid]	0.1 to 3 mg/kg	6.31 to 100 pM
O=C(O)/C=C/c1ccc(F)c(NC(=O)c2cc(-c3cccc(F)c3)cc3ccccc23)c1 [Example 10, (2E)-3-{3-[({3-[3-fluorophenyl]naphthalen-1-yl}carbonyl)amino]-4fluorophenyl}prop-2-enoic acid]	0.1 to 3 mg/kg	6.31 to 100 pM
